Here are results for 65 compounds from ChEMBL document CHEMBL3301361, “Experimental in vitro DMPK and physicochemical data on a set of publicly disclosed compounds”.

Molecules are shown by their SMILES.

One series can be described thus: in vitro. The settings on record: human, plasma, PPB.
The next series is described as follows: physchem. The settings on record: octan-1-ol/water, pH 7.4, LogD7.4.

For `CC(=O)Nc1ccc(-c2ccnc(Nc3ccc(N4CCOCC4)cc3)n2)cc1`, the free fraction (fraction unbound) (usually the share of the substance not bound to proteins or other matrix) at 5 h in the series “in vitro” was 0.0676. Besides, the logD (commonly the decadic logarithm of the distribution of all forms, ionised or not, between an organic phase and buffer at a given pH) in “physchem” worked out at 2.91.
The like results for `Cc1cnc(Nc2cc(N3CCN(C)CC3)nc(N[C@@H](C)c3ccc(F)cn3)n2)s1` were, in that order, 0.0467 and 2.9.
The like results for `C[C@H](Nc1nc(Nc2ncc(C#N)s2)cc(N2CCOCC2)n1)c1ccc(F)cn1` were, in that order, 0.0594 and 3.45.
The like results for `COc1cc(Nc2ncc(C)s2)nc(N[C@@H](C)c2ncc(F)cn2)n1` were, in that order, 0.103 and 2.99.
The compound `Cc1cnc(Nc2cc(N3CCOCC3)nc(N[C@@H](C)c3ncc(F)cn3)n2)s1` showed a fraction unbound at 5 h in the series “in vitro” of 0.0736. The compound further registered a pH-dependent lipophilicity (logD) in the series “physchem” of 2.68.
Consider `NC(=O)c1cnc(N[C@H]2CCCNC2)c2cc(-c3ccc(Cl)cc3)sc12`, for which the fraction unbound at 5 h in “in vitro” was 0.0081. The logD in “physchem” was 2.78.
The matching figures for `NC(=O)c1cnc(N[C@H]2CCCNC2)c2cc(-c3ccc(Cl)c(F)c3)sc12`: 0.0106 and 2.76.
In turn, `O=C1CN(C(=O)c2ccco2)C(c2ccccc2)c2cc(Cl)ccc2N1` (stereo not given) showed a fraction unbound at 5 h in “in vitro” of 0.101. The compound also returned a logD in “physchem” of 3.
In turn, `COc1ccc(CC(=O)Nc2nc3ccccc3[nH]2)cc1` showed an unbound share (fraction unbound) at 5 h in the series “in vitro” of 0.0374. Moreover, in the series “physchem”, the logD stood at 2.9.
For the compound `COc1nccnc1NS(=O)(=O)c1ccc(N)cc1`, in the series “in vitro”, the fraction unbound at 5 h was 0.232. The compound also returned a logD in “physchem” of -0.65.
The matching figures for `Nc1ccc(OCCc2ccccc2)cc1`: 0.0343 and 2.71.
As for `O=C1CN(C(=O)c2ccccc2)C(c2ccccc2)c2cc(Cl)ccc2N1` (stereo not given), the unbound share (fraction unbound) at 5 h in “in vitro” was 0.0606. For the same compound, the logD in the series “physchem” worked out at 3.31.
The compound `CC(=O)c1cn(Cc2ccccc2)c(=O)n(Cc2ccc(F)cc2)c1=O` gave a fraction unbound at 5 h in the series “in vitro” of 0.0245. Besides, the log distribution coefficient (logD) in “physchem” amounted to 3.2.
In turn, `O=C(CCS(=O)(=O)c1ccc(Br)cc1)NCc1ccc(F)cc1` gave a fraction unbound at 5 h in the series “in vitro” of 0.0428. Besides, the logD in the series “physchem” came out at 3.1.
Turning to `CNC(=O)c1cc(C(=O)c2ccc(Cl)cc2)c(Br)[nH]1`, the fraction unbound at 5 h in the series “in vitro” was 0.0139. This compound had a logD in “physchem” of 3.1.
The like results for `CC(C)CCOc1ccc(N)cc1` were, in that order, 0.0676 and 2.67.
With `Cc1cccc(-c2nc3cc(Cl)ccc3[nH]2)n1`, the fraction unbound at 5 h in the series “in vitro” is 0.0111. The log distribution coefficient (logD) in “physchem” was determined as 4.1.
Regarding `COc1cc(Nc2nc(N[C@@H](C)c3ncc(F)cn3)nc(N3CCOCC3)c2Cl)n[nH]1`, the fraction unbound at 5 h in “in vitro” was 0.0784. The compound also had a logD in “physchem” of 2.85.
Take `CCOc1cc2nnc(C(N)=O)c(Nc3cc(C)ccc3F)c2cc1N1CCN(C)CC1`: in “in vitro”, the fraction unbound at 5 h is 0.107. The compound also gave a pH-dependent lipophilicity (logD) in the series “physchem” of 3.02.
In turn, `CCN(CC)S(=O)(=O)c1ccc(-c2nnc(SCC(=O)N3CCc4ccccc43)o2)cc1` showed a fraction unbound at 5 h in the series “in vitro” of 0.0035. The logD in the series “physchem” amounted to 3.9.
The compound `c1ccc2[nH]c(CCCc3nc4ccccc4[nH]3)nc2c1` gave a fraction unbound at 5 h in the series “in vitro” of 0.0031. In the series “physchem”, this compound yielded a logD of 3.5.
The matching figures for `CSc1ccc(N2C(N)=NC(N)=NC2(C)C)cc1`: 0.666 and -0.84.
The like results for `Cc1cc(Nc2nc(N[C@@H](C)c3ccc(F)cn3)c(C#N)cc2F)n[nH]1` were, in that order, 0.0532 and 3.11.
The like results for `COc1ccnc(CCc2nc3cc(Br)cnc3[nH]2)c1` were, in that order, 0.0409 and 2.92.
For the compound `C[C@H]1O[C@@H](n2cnc3c(N)nc(OCC4CC45CC5)nc32)[C@H](O)[C@H]1Cl` (stereo not given in full), in the series “in vitro”, the fraction unbound at 5 h was 0.0447. The logD in the series “physchem” is 3.68.
Consider `Cc1ccc(NC(=O)c2ccnc(N3CCOCC3)c2)cc1NC(=O)c1ccc(OCc2ccccn2)cc1`, for which the fraction unbound at 5 h in the series “in vitro” is 0.0149. Further, the log distribution coefficient (logD) in the series “physchem” was found to be 3.47.
Regarding `CN[C@@H](C)C(=O)N[C@H](C(=O)N[C@H]1CCCN(CCc2ccc(C(F)(F)F)cc2)C1)C(C)(C)C`, the fraction unbound at 5 h in “in vitro” was 0.0928. In addition, the logD in the series “physchem” was 2.85.
Regarding `O=C1[C@@H]2[C@@H]3CC[C@@H](C3)[C@@H]2C(=O)N1[C@H]1CC[C@H](C(=O)Nc2cccc3cccnc23)CC1`, the fraction unbound at 5 h in the series “in vitro” is 0.016. The logD in the series “physchem” was 3.94.
In “in vitro”, `CCOc1ccccc1-c1ccc(-c2nc3ccncc3c(O)c2C#N)cc1` showed a fraction unbound at 5 h of 0.0007. Moreover, the logD in “physchem” was 3.
Take `Cc1cnc(Nc2ccc(N3CCN(C)CC3)cc2)nc1Nc1cccc(S(=O)(=O)NC(C)(C)C)c1`: the free fraction (fraction unbound) at 5 h in the series “in vitro” was 0.0752. In the series “physchem”, this compound gave a logD of 2.84.
The like results for `CNc1c(Br)cnc2[nH]c(-c3ccc(S(C)(=O)=O)cc3)nc12` were, in that order, 0.0477 and 2.88.
The like results for `CNc1c(Br)cnc2[nH]c(-c3cccc(N)c3)nc12` were, in that order, 0.0988 and 2.96.
The like results for `CNc1c(Br)cnc2nc(-c3ccnc(N)c3)[nH]c12` were, in that order, 0.0268 and 2.83.
Consider `CNc1c(Br)cnc2nc(-c3ccc(OCCN4CCN(C)CC4)cc3)[nH]c12`, for which the unbound share (fraction unbound) at 5 h in “in vitro” was 0.0383. The logD in “physchem” is 2.91.
The matching figures for `COc1ccc(-c2nc3c(NCCCNC(C)=O)c(Br)cnc3[nH]2)cc1`: 0.0262 and 3.28.
Regarding `N#Cc1cnn2c(NC3CC3)cc(-c3cccs3)nc12`, the fraction unbound at 5 h in “in vitro” is 0.016. Moreover, the logD in “physchem” was 2.88.
Compound `COc1ccc(-c2cc(Nc3ccn(C)n3)n3ncc(C#N)c3n2)cc1` had a fraction unbound at 5 h in the series “in vitro” of 0.0179. In “physchem”, this compound came in with a pH-dependent lipophilicity (logD) of 2.97.
The compound `CC(=O)Nc1ccc2cnn(-c3cc(NC4CC4)n4ncc(C#N)c4n3)c2c1` had a fraction unbound at 5 h in “in vitro” of 0.0191. In addition, in the series “physchem”, the logD stood at 3.44.
The like results for `CC(=O)Nc1cnc2ccn(-c3cc(NC4CC4)n4ncc(C#N)c4n3)c2c1` were, in that order, 0.0251 and 2.69.
As to `CC(=O)Nc1ccc2c(c1)N(c1cc(NC3CC3)n3ncc(C#N)c3n1)CC2`, in “in vitro”, the fraction unbound at 5 h is 0.0251. Moreover, in “physchem”, the logD was 3.3.
With `N#Cc1cnn2c(NC3CC3)cc(-n3ccc4ccc(CO)cc43)nc12`, in “in vitro”, the fraction unbound at 5 h is 0.0191. The compound also had a logD in “physchem” of 3.09.
Turning to `C[C@H](Nc1ccc2ncn(-c3cc(C4CC4)[nH]n3)c2n1)c1ncc(F)cn1`, in the series “in vitro”, the fraction unbound at 5 h was 0.212. In “physchem”, the logD stood at 2.74.
For the compound `Cc1cn([C@H]2CCCN(Cc3ccc(C(=O)O)c(Oc4cccc(Br)c4)c3)C2)c(=O)[nH]c1=O`, the free fraction (fraction unbound) at 5 h in “in vitro” is 0.0191. For the same compound, in the series “physchem”, the logD is -0.51.
The like results for `Cc1c(Cl)ccc(OC2CCN(C[C@H](O)CNC(=O)c3c[nH]c(=O)cc3C(F)(F)F)CC2)c1Cl` were, in that order, 0.0335 and 3.14.
The matching figures for `N#Cc1cccc(C(=O)NC[C@@H](O)CN2CCC(Oc3ccc(Cl)c(Cl)c3)CC2)c1`: 0.0647 and 3.48.
The matching figures for `COc1cc(C(=O)NC[C@@H](O)CN2CCC(Oc3ccc(Cl)c(Cl)c3)CC2)ccc1N`: 0.0032 and 3.12.
Turning to `Cc1cn([C@H]2CCCN(S(=O)(=O)c3ccc(C(=O)O)c(Oc4cccc(Cl)c4)c3)C2)c(=O)[nH]c1=O`, the free fraction (fraction unbound) at 5 h in the series “in vitro” is 0.04. For the same compound, the logD in the series “physchem” was -1.28.
The like results for `COCCNC(=O)c1ccc(Nc2ncc3cc(-c4ccncc4OC)ccc3n2)cc1` were, in that order, 0.002 and 3.14.
The matching figures for `CC(=O)Nc1ccc(Nc2ncc3cc(-c4ccncc4)ccc3n2)cc1`: 0.006 and 3.04.
The like results for `C[C@@H](NC(=O)C1CCCCN1C)c1ccc(Nc2ncc3cc(-c4ccncc4)ccc3n2)cc1` (stereo not given in full) were, in that order, 0.0383 and 3.34.
On to `CC(=O)N[C@H](C)c1ccc(Nc2ncc3cc(-c4ccncc4)c(C)cc3n2)cc1`, for which the fraction unbound at 5 h in the series “in vitro” is 0.0191. In “physchem”, this compound returned a pH-dependent lipophilicity (logD) of 3.45.
The matching figures for `CC(C)C[C@H](CO)Nc1nc(SCc2cccc(C#N)c2)nc2nc(N)sc12`: 0.0086 and 3.9.
The like results for `C[C@H](CO)Nc1nc(SCc2cccc(F)c2F)nc2[nH]c(N)nc12` were, in that order, 0.0229 and 3.22.
In “in vitro”, `C[C@H](CO)Nc1nc(SCc2ccccc2)nc2nc(N)sc12` gave a fraction unbound at 5 h of 0.0457. This compound also gave a logD in “physchem” of 3.12.
The like results for `CC[C@@H](CO)Nc1nc(SCc2ccccc2)nc2nc(N)sc12` were, in that order, 0.0335 and 2.99.
The matching figures for `COc1ccc(OC)c(CNc2[nH]nc3ccnc(Oc4ccccc4)c23)c1`: 0.0142 and 4.25.
Turning to `Cc1ccc(NC(=O)c2ccc(Cl)c(C(F)(F)F)c2)cc1C(=O)Nc1cccnc1`, in “in vitro”, the fraction unbound at 5 h is 0.0119. In “physchem”, the logD worked out at 2.83.
Turning to `COc1cc2ncc(C(N)=O)c(Nc3ccccc3C)c2cc1OC`, the free fraction (fraction unbound) at 5 h in the series “in vitro” was 0.0081. In addition, the logD in “physchem” was determined as 3.4.
`CCOc1cc2ncc(C(N)=O)c(Nc3ccc(F)cc3F)c2cc1N1CCC(O)CC1` had a free fraction (fraction unbound) at 5 h in the series “in vitro” of 0.089. Also, the logD in “physchem” was determined as 2.74.
The matching figures for `CN1CCN(c2ccc3ncc(C(N)=O)c(Nc4ccc(Cl)cc4Cl)c3c2)CC1`: 0.0179 and 3.23.
The like results for `Cc1cc(Nc2nc(O[C@@H](C)c3ccc(F)cn3)c(C#N)nc2C)[nH]n1` were, in that order, 0.0594 and 2.86.
In the case of `Cc1cc(Nc2nc(O[C@H](C)c3ccc(F)cn3)c(C#N)nc2C)[nH]n1`, the fraction unbound at 5 h in the series “in vitro” was 0.0219. Further, in “physchem”, the logD was 2.72.
The matching figures for `Cc1c[nH]c(-c2cc(NC(=O)c3ccc(C(F)(F)F)nc3C)ccc2Cl)n1`: 0.0391 and 3.3.
In the series “in vitro”, `N#Cc1ccc2c(c1)NC(=O)C2c1ncnc2cc(OCCCN3CCOCC3)ccc12` (stereo not given) showed a fraction unbound at 5 h of 0.013. Besides, the logD in the series “physchem” is 2.99.
For `Nc1ncnc2nc(-c3ccc(N4CCOCC4)nc3)cc(-c3cccc(Br)c3)c12`, in the series “in vitro”, the fraction unbound at 5 h is 0.0343. The compound further returned a logD in “physchem” of 3.2.
